This is an account of results in PubChem BioAssay (NCI).

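Assay format: 96-well plates, 48-hour exposure. Abbreviation: GI50, concentration required for 50% inhibition of growth. Definition used: TGI = concentration required for complete inhibition of growth.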

Some test systems named below: UACC-257 melanoma; HCT-15 colon; IGROV1 ovarian; SK-MEL-2 melanoma; KM12 colon; SF-268 CNS; M14 melanoma; CAKI-1 renal; NCI/ADR-RES ovarian; MOLT-4 leukemia.
What all share (test): NCI-60 cell line screen, 48 h

Take `CC1(C)OC2C(=O)C=C(COCc3ccccc3)C2O1` (stereo not drawn): the TGI in the test with UACC-257 melanoma is > 100 µM; in the test with HCT-15 colon, > 100 µM; with IGROV1 ovarian, 53.5 µM; in the test with SK-MEL-2 melanoma, > 100 µM; in the test with KM12 colon, 51.1 µM; with SF-268 CNS it was > 100 µM. The TGI in the test with M14 melanoma is 92.9 µM; in the test on CAKI-1 renal it was > 100 µM; with NCI/ADR-RES ovarian, > 100 µM; with MOLT-4 leukemia, > 100 µM.

Turning to `C[CH2][Pb]([CH2]C)([CH2]C)[O]C(=O)c1ccc2ccccc2n1`, the GI50 with UACC-257 melanoma, with HCT-15 colon, with IGROV1 ovarian, in the test on SK-MEL-2 melanoma, with KM12 colon and with SF-268 CNS was > 10 µM each time. Moreover, the GI50 with M14 melanoma, in the test with CAKI-1 renal, in the test on NCI/ADR-RES ovarian and in the test with MOLT-4 leukemia was > 10 µM each time. The TGI in the test with UACC-257 melanoma, in the test with HCT-15 colon, in the test with IGROV1 ovarian, in the test on SK-MEL-2 melanoma, in the test on KM12 colon and in the test with SF-268 CNS was > 10 µM in each case. In addition, the TGI in the test on M14 melanoma, in the test on CAKI-1 renal, in the test on NCI/ADR-RES ovarian and in the test with MOLT-4 leukemia was > 10 µM each time.

Turning to `CSC(=S)N/N=C(\C)c1cccc(C)n1`, the TGI in the test on UACC-257 melanoma came to 21.9 µM; in the test with HCT-15 colon, 48.1 µM; with IGROV1 ovarian, 18 µM; with SK-MEL-2 melanoma it was 16.5 µM; in the test on KM12 colon, 42.6 µM; in the test with SF-268 CNS, 46.7 µM. Moreover, the TGI in the test with M14 melanoma is 1.6 µM; in the test on CAKI-1 renal it was 23.6 µM; with NCI/ADR-RES ovarian, > 36.3 µM.

For `CCCCn1c(=O)c2c(nc3n2CCCN3CCc2ccc(OCC(=O)NCCN(CC)CC)cc2)n(CCCC)c1=O`, the GI50 in the test with UACC-257 melanoma was 1.02 µM; in the test with HCT-15 colon, 1.11 µM; in the test on IGROV1 ovarian, 5.83 µM; with SK-MEL-2 melanoma it was 6.7 µM; with KM12 colon, 6.49 µM; in the test with SF-268 CNS, 5.16 µM. Moreover, the GI50 with M14 melanoma is 0.961 µM; with CAKI-1 renal, 2.63 µM; in the test with NCI/ADR-RES ovarian it was 5.42 µM; in the test on MOLT-4 leukemia, 2.14 µM. For the same compound, the TGI in the test on UACC-257 melanoma is 2.16 µM; with HCT-15 colon it was 3.47 µM; in the test with IGROV1 ovarian, 15.4 µM; in the test with SK-MEL-2 melanoma, 15.3 µM; with KM12 colon it was 13.5 µM; with SF-268 CNS, 12.8 µM. In addition, the TGI amounted to 1.93 µM in the test on M14 melanoma, 9.94 µM in the test on CAKI-1 renal, 27.9 µM in the test with NCI/ADR-RES ovarian and 10.5 µM in the test with MOLT-4 leukemia.

With `CN(CCCCCl)P(=O)(OCCS(=O)(=O)CC(NC(=O)CCC(N)C(=O)O)C(=O)NC(C(=O)O)c1ccccc1)OCC1OC(n2cc(F)c(=O)[nH]c2=O)CC1O` (stereo not drawn), the GI50 with UACC-257 melanoma is 4.58 µM; in the test with HCT-15 colon, 1.32 µM; in the test on IGROV1 ovarian it was 0.0884 µM; in the test with SK-MEL-2 melanoma it was > 49.7 µM; with KM12 colon it was 13.3 µM; in the test on SF-268 CNS, < 0.01 µM. In addition, the GI50 in the test with M14 melanoma was 0.0647 µM; in the test with CAKI-1 renal, 0.0177 µM; with NCI/ADR-RES ovarian, 0.323 µM; with MOLT-4 leukemia it was 0.274 µM. Also, the TGI in the test with UACC-257 melanoma was > 100 µM; in the test on HCT-15 colon it was 46.6 µM; in the test on IGROV1 ovarian, > 100 µM; with SK-MEL-2 melanoma, > 100 µM; with KM12 colon, > 78 µM; with M14 melanoma, 2.85 µM. Also, the TGI in the test on CAKI-1 renal was 25.6 µM; with NCI/ADR-RES ovarian, > 65.1 µM; in the test on MOLT-4 leukemia, > 95.5 µM.

Regarding `C[C@@H]1O[C@@H](OC[C@H]2O[C@@H](OCCc3ccc(O)c(O)c3)[C@H](O)[C@@H](O)[C@@H]2OC(=O)/C=C/c2ccc(O)c(O)c2)[C@H](O)[C@H](O)[C@H]1O`, the GI50 in the test on UACC-257 melanoma, with HCT-15 colon, in the test with IGROV1 ovarian, with SK-MEL-2 melanoma, with KM12 colon and with SF-268 CNS was > 100 µM throughout. Besides, the GI50 in the test with M14 melanoma is > 100 µM; with CAKI-1 renal, > 100 µM; in the test with NCI/ADR-RES ovarian, 74.3 µM; in the test on MOLT-4 leukemia, > 100 µM. Besides, the TGI in the test with UACC-257 melanoma, in the test on HCT-15 colon, in the test with IGROV1 ovarian, in the test on SK-MEL-2 melanoma, with KM12 colon and with SF-268 CNS was > 100 µM in each case. Also, the TGI in the test with M14 melanoma, with CAKI-1 renal, in the test with NCI/ADR-RES ovarian and in the test on MOLT-4 leukemia was > 100 µM each time.

As to `CCN(Cc1ccc(Cl)s1)c1ccc(CO)c(Cl)c1`, the GI50 is 0.0898 µM with UACC-257 melanoma; 4.2 µM with HCT-15 colon; 0.0722 µM in the test with IGROV1 ovarian; 2.02 µM in the test with SK-MEL-2 melanoma; 14.7 µM in the test on KM12 colon; 17.7 µM in the test on SF-268 CNS. In addition, the GI50 is 10.3 µM in the test with M14 melanoma, 2.27 µM in the test on CAKI-1 renal, 10.4 µM in the test with NCI/ADR-RES ovarian and 21.5 µM in the test on MOLT-4 leukemia. Also, the TGI was 0.298 µM in the test on UACC-257 melanoma; > 50.6 µM with HCT-15 colon; 0.337 µM with IGROV1 ovarian; 13.7 µM in the test with SK-MEL-2 melanoma; 31.6 µM in the test on KM12 colon; > 60 µM in the test with SF-268 CNS. In addition, the TGI with M14 melanoma is 34.3 µM; in the test on CAKI-1 renal it was 34.6 µM; in the test on NCI/ADR-RES ovarian it was 47.1 µM; with MOLT-4 leukemia, > 75.1 µM.

For the compound `Cn1cc(-c2nonc2-c2cn(C)c3ccccc23)c2ccccc21`, the GI50 is 50.4 µM with UACC-257 melanoma; 0.537 µM in the test with HCT-15 colon; 1.53 µM in the test with IGROV1 ovarian; 1.22 µM in the test with SK-MEL-2 melanoma; 0.661 µM in the test on KM12 colon; 1.6 µM in the test with SF-268 CNS. Further, the GI50 with M14 melanoma was 0.469 µM; in the test on CAKI-1 renal it was 0.653 µM; in the test on NCI/ADR-RES ovarian, 0.626 µM; in the test with MOLT-4 leukemia it was 1.72 µM. For the same compound, the TGI with UACC-257 melanoma, with HCT-15 colon, in the test with IGROV1 ovarian, with SK-MEL-2 melanoma, in the test with KM12 colon and with SF-268 CNS was > 100 µM throughout. The TGI in the test with M14 melanoma, in the test on CAKI-1 renal, with NCI/ADR-RES ovarian and with MOLT-4 leukemia was > 100 µM throughout.
